Laboratory results from the CheMixHub viscosity set.
± gives the uncertainty stated by the source.

Test: xn = mol fraction of the nth substance listed

CCN(CC)S(C)(=O)=O + CC(C)(C)O
viscosity (303.15 K, 101.33 kPa, x1 = 0.0764): 28570 ± 3400 mPa·s
viscosity (303.15 K, 101.33 kPa, x1 = 0.1463): 26300 ± 3100 mPa·s
viscosity (303.15 K, 101.33 kPa, x1 = 0.2364): 24820 ± 2900 mPa·s
viscosity (303.15 K, 101.33 kPa, x1 = 0.3171): 24370 ± 2800 mPa·s
viscosity (303.15 K, 101.33 kPa, x1 = 0.3944): 24530 ± 2800 mPa·s
viscosity (303.15 K, 101.33 kPa, x1 = 0.4712): 25010 ± 2900 mPa·s
viscosity (303.15 K, 101.33 kPa, x1 = 0.5369): 25790 ± 3000 mPa·s
viscosity (303.15 K, 101.33 kPa, x1 = 0.6062): 26640 ± 3100 mPa·s
viscosity (303.15 K, 101.33 kPa, x1 = 0.6888): 27960 ± 3300 mPa·s
viscosity (303.15 K, 101.33 kPa, x1 = 0.7621): 30100 ± 3600 mPa·s
viscosity (303.15 K, 101.33 kPa, x1 = 0.8534): 33040 ± 4000 mPa·s
viscosity (303.15 K, 101.33 kPa, x1 = 0.9381): 36570 ± 4500 mPa·s

NS(=O)(=O)O + CN1CCCC1=O
viscosity (298 K, 101.33 kPa, x1 = 0.02005): 2.01 ± 0.024 mPa·s
viscosity (298 K, 101.33 kPa, x1 = 0.03918): 2.413 ± 0.029 mPa·s
viscosity (298 K, 101.33 kPa, x1 = 0.05851): 2.977 ± 0.036 mPa·s
viscosity (298 K, 101.33 kPa, x1 = 0.07708): 3.724 ± 0.045 mPa·s
viscosity (298 K, 101.33 kPa, x1 = 0.09776): 4.962 ± 0.062 mPa·s

CCCCCCCCCCCCCC[P+](CCCCCC)(CCCCCC)CCCCCC.c1ccc2[n-]nnc2c1 + O
viscosity (298.15 K, 100 kPa, x2 = 0.728): 181 ± 6 mPa·s

CCCCC(=O)OCC + CCCCCCO
viscosity (293.15 K, 101.33 kPa, x1 = 0.1071): 3.938 ± 0.05 mPa·s
viscosity (293.15 K, 101.33 kPa, x1 = 0.2022): 3.209 ± 0.043 mPa·s
viscosity (293.15 K, 101.33 kPa, x1 = 0.3018): 2.61 ± 0.037 mPa·s
viscosity (293.15 K, 101.33 kPa, x1 = 0.3929): 2.177 ± 0.032 mPa·s
viscosity (293.15 K, 101.33 kPa, x1 = 0.5117): 1.74 ± 0.028 mPa·s
viscosity (293.15 K, 101.33 kPa, x1 = 0.6028): 1.483 ± 0.025 mPa·s
viscosity (293.15 K, 101.33 kPa, x1 = 0.7035): 1.258 ± 0.023 mPa·s
viscosity (293.15 K, 101.33 kPa, x1 = 0.8025): 1.086 ± 0.021 mPa·s
viscosity (293.15 K, 101.33 kPa, x1 = 0.9053): 0.946 ± 0.02 mPa·s
viscosity (303.15 K, 101.33 kPa, x1 = 0.1071): 3.004 ± 0.041 mPa·s
viscosity (303.15 K, 101.33 kPa, x1 = 0.2022): 2.46 ± 0.035 mPa·s
viscosity (303.15 K, 101.33 kPa, x1 = 0.3018): 2.012 ± 0.03 mPa·s
viscosity (303.15 K, 101.33 kPa, x1 = 0.3929): 1.688 ± 0.027 mPa·s
viscosity (303.15 K, 101.33 kPa, x1 = 0.5117): 1.362 ± 0.024 mPa·s
viscosity (303.15 K, 101.33 kPa, x1 = 0.6028): 1.17 ± 0.022 mPa·s
viscosity (303.15 K, 101.33 kPa, x1 = 0.7035): 1.002 ± 0.02 mPa·s
viscosity (303.15 K, 101.33 kPa, x1 = 0.8025): 0.873 ± 0.019 mPa·s
viscosity (303.15 K, 101.33 kPa, x1 = 0.9053): 0.769 ± 0.018 mPa·s
viscosity (313.15 K, 101.33 kPa, x1 = 0.1071): 2.257 ± 0.033 mPa·s
viscosity (313.15 K, 101.33 kPa, x1 = 0.2022): 1.873 ± 0.029 mPa·s
viscosity (313.15 K, 101.33 kPa, x1 = 0.3018): 1.558 ± 0.026 mPa·s
viscosity (313.15 K, 101.33 kPa, x1 = 0.3929): 1.329 ± 0.023 mPa·s
viscosity (313.15 K, 101.33 kPa, x1 = 0.5117): 1.1 ± 0.021 mPa·s
viscosity (313.15 K, 101.33 kPa, x1 = 0.6028): 0.964 ± 0.02 mPa·s
viscosity (313.15 K, 101.33 kPa, x1 = 0.7035): 0.846 ± 0.019 mPa·s
viscosity (313.15 K, 101.33 kPa, x1 = 0.8025): 0.755 ± 0.018 mPa·s
viscosity (313.15 K, 101.33 kPa, x1 = 0.9053): 0.682 ± 0.017 mPa·s

C1CCCCCCC1 + Clc1ccccc1
viscosity (308.15 K, 101 kPa, x1 = 0.1213): 0.7246 ± 0.024 mPa·s
viscosity (308.15 K, 101 kPa, x1 = 0.2071): 0.7681 ± 0.026 mPa·s
viscosity (308.15 K, 101 kPa, x1 = 0.3009): 0.8486 ± 0.028 mPa·s
viscosity (308.15 K, 101 kPa, x1 = 0.3941): 0.9205 ± 0.03 mPa·s
viscosity (308.15 K, 101 kPa, x1 = 0.5112): 1.014 ± 0.032 mPa·s
viscosity (308.15 K, 101 kPa, x1 = 0.5915): 1.079 ± 0.034 mPa·s
viscosity (308.15 K, 101 kPa, x1 = 0.6905): 1.159 ± 0.037 mPa·s
viscosity (308.15 K, 101 kPa, x1 = 0.799): 1.297 ± 0.04 mPa·s
viscosity (308.15 K, 101 kPa, x1 = 0.9125): 1.544 ± 0.047 mPa·s
viscosity (313.15 K, 101 kPa, x1 = 0.1213): 0.6673 ± 0.023 mPa·s
viscosity (313.15 K, 101 kPa, x1 = 0.2071): 0.7011 ± 0.024 mPa·s
viscosity (313.15 K, 101 kPa, x1 = 0.3009): 0.7511 ± 0.025 mPa·s
viscosity (313.15 K, 101 kPa, x1 = 0.3941): 0.8196 ± 0.027 mPa·s
viscosity (313.15 K, 101 kPa, x1 = 0.5112): 0.9056 ± 0.03 mPa·s
viscosity (313.15 K, 101 kPa, x1 = 0.5915): 0.951 ± 0.031 mPa·s
viscosity (313.15 K, 101 kPa, x1 = 0.6905): 1.042 ± 0.033 mPa·s
viscosity (313.15 K, 101 kPa, x1 = 0.799): 1.197 ± 0.037 mPa·s
viscosity (313.15 K, 101 kPa, x1 = 0.9125): 1.402 ± 0.043 mPa·s
